Measurements as given in the kinase profiling compilation of Christmann-Franck et al. (2016).
“And” between values parts separate entries of the source, which are not always exact repeats. Identical values can stand only once. Each block holds one compound with its values, some of them ahead of it.

Columns and labels:
Test in all cases: radiometric filter-binding kinase assay, Kinase HotSpot
Conditions in all cases: compound 0.5 µM; ATP 10 µM
DSTYK (human) = DSTYK (human) (UniProt Q6XUX3)
JAK2 JH1 JH2 (human) = JAK2 JH1 JH2 (human) (UniProt O60674)
FYN (human) = FYN (human) (UniProt P06241)
RPS6KA6 KD1 KD2 (human) = RPS6KA6 KD1 KD2 (human) (UniProt Q9UK32)
AKT3 (human) = AKT3 (human) (UniProt Q9Y243)
CDC42BPA (human) = CDC42BPA (human) (UniProt Q5VT25)
CAMKK2 (human) = CAMKK2 (human) (UniProt Q96RR4)
CAMK1G (human) = CAMK1G (human) (UniProt Q96NX5)
INSRR (human) = INSRR (human) (UniProt P14616)
EPHA7 (human) = EPHA7 (human) (UniProt Q15375)
MAPK9 (human) = MAPK9 (human) (UniProt P45984)
FGFR1 (human) = FGFR1 (human) (UniProt P11362)
DDR2 (human) = DDR2 (human) (UniProt Q16832)
SRC (human) = SRC (human) (UniProt P12931)
CSK (human) = CSK (human) (UniProt P41240)
LYN (human) = LYN (human) (UniProt P07948)
NEK1 (human) = NEK1 (human) (UniProt Q96PY6)
CDK3 CCNE1 (human) = CDK3 CCNE1 (human) (UniProt Q00526+P24864)
NEK7 (human) = NEK7 (human) (UniProt Q8TDX7)
ALK (human) = ALK (human) (UniProt Q9UM73)
MAPK1 (human) = MAPK1 (human) (UniProt P28482)
PAK1 (human) = PAK1 (human) (UniProt Q13153)
STK11 (human) = STK11 (human) (UniProt Q15831)
CDK5 CDK5R1 p25 (human) = CDK5 CDK5R1 p25 (human) (UniProt Q00535+Q15078)
EPHB1 (human) = EPHB1 (human) (UniProt P54762)
TEC (human) = TEC (human) (UniProt P42680)
ITK (human) = ITK (human) (UniProt Q08881)
SGK3 (human) = SGK3 (human) (UniProt Q96BR1)
GRK7 (human) = GRK7 (human) (UniProt Q8WTQ7)
MARK2 (human) = MARK2 (human) (UniProt Q7KZI7)
PASK (human) = PASK (human) (UniProt Q96RG2)
TTK (human) = TTK (human) (UniProt P33981)
MKNK2 (human) = MKNK2 (human) (UniProt Q9HBH9)
PRKD3 (human) = PRKD3 (human) (UniProt O94806)
PRKCG (human) = PRKCG (human) (UniProt P05129)
TXK (human) = TXK (human) (UniProt P42681)
PLK3 (human) = PLK3 (human) (UniProt Q9H4B4)
FES (human) = FES (human) (UniProt P07332)
ADRBK2 (human) = ADRBK2 (human) (UniProt P35626)
RPS6KA3 KD1 KD2 (human) = RPS6KA3 KD1 KD2 (human) (UniProt P51812)
FGFR4 (human) = FGFR4 (human) (UniProt P22455)
BRSK2 (human) = BRSK2 (human) (UniProt Q8IWQ3)

ADRBK2 (human), sequence (P35626 whole entry, looked up): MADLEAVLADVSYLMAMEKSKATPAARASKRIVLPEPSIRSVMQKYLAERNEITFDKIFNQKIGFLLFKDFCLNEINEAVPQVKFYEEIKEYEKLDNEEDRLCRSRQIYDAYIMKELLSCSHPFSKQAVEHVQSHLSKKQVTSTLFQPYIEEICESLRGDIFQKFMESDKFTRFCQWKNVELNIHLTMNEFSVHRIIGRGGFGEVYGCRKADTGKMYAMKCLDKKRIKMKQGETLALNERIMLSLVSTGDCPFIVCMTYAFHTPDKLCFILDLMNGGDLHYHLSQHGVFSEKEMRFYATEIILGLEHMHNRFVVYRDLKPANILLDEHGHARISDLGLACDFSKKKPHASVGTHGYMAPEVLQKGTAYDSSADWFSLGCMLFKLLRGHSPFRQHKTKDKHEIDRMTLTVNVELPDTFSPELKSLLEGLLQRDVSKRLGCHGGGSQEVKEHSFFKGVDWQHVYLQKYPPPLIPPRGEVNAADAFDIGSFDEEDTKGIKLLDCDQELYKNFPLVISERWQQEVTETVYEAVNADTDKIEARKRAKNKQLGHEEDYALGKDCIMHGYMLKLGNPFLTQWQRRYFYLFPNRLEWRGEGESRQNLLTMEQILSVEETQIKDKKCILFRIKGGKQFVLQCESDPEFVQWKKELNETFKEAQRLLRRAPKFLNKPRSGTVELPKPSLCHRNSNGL
STK11 (human), sequence (Q15831 whole entry, looked up): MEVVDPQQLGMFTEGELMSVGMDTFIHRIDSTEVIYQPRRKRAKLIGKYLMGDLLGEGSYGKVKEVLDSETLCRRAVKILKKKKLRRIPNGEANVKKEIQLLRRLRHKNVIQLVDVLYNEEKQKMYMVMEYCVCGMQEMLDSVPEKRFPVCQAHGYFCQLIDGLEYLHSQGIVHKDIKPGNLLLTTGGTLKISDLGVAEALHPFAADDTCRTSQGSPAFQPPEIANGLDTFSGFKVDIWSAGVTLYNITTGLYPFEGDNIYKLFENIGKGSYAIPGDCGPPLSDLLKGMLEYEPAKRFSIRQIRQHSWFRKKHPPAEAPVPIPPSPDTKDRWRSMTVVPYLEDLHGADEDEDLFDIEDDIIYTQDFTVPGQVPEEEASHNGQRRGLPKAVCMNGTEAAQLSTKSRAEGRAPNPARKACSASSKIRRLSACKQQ
PASK (human), sequence (Q96RG2 whole entry, looked up): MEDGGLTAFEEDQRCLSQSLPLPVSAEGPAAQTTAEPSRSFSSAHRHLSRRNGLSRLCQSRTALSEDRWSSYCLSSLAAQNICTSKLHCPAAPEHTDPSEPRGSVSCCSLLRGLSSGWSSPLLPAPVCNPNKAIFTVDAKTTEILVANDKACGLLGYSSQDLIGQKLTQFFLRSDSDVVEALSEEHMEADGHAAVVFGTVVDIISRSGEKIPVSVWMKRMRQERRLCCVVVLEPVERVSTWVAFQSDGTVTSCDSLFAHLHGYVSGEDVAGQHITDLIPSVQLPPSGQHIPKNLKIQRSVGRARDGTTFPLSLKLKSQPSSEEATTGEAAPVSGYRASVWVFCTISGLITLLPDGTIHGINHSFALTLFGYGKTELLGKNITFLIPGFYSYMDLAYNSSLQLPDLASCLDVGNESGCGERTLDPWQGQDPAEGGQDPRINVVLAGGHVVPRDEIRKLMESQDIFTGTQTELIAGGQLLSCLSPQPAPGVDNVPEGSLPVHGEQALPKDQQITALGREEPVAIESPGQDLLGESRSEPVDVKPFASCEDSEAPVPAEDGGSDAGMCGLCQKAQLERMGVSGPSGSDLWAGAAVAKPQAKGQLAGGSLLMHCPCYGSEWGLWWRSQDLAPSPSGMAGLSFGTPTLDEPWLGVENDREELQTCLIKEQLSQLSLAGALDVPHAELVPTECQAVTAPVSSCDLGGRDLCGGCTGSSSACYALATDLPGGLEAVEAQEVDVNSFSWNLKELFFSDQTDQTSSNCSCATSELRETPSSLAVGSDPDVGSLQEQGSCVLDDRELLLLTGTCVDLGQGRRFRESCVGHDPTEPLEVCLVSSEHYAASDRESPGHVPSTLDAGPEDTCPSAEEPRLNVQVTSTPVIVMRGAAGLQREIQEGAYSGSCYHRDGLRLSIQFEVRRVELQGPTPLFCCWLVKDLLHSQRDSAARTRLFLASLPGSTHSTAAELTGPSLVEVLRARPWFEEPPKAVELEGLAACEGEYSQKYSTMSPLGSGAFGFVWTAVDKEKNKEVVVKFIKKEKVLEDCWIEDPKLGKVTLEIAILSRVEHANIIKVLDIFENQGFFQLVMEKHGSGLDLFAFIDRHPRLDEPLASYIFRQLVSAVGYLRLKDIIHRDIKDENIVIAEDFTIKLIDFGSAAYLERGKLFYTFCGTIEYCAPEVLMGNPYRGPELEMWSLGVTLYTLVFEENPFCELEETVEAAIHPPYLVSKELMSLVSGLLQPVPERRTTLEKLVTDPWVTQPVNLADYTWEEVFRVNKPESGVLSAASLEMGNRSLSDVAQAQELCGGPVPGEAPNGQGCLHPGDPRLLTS
CDK5 CDK5R1 p25 (human), sequence (Q00535 whole entry, looked up): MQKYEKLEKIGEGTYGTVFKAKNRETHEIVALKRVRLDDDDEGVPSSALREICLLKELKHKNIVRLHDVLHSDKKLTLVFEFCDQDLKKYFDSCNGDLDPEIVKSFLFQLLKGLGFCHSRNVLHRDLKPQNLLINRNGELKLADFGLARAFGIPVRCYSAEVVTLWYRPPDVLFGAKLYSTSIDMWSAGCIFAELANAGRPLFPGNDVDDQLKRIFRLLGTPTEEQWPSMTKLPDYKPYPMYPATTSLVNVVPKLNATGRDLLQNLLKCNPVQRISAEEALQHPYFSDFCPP
CDK5 CDK5R1 p25 (human), sequence (Q15078 whole entry, looked up): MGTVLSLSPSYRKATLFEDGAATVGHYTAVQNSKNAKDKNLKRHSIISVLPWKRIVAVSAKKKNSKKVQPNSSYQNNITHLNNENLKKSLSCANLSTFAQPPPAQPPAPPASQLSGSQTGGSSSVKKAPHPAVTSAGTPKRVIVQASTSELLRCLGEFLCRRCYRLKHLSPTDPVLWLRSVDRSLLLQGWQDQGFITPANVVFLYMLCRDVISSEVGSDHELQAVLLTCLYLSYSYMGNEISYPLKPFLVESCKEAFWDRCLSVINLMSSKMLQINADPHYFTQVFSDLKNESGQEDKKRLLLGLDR
NEK1 (human), sequence (Q96PY6 whole entry, looked up): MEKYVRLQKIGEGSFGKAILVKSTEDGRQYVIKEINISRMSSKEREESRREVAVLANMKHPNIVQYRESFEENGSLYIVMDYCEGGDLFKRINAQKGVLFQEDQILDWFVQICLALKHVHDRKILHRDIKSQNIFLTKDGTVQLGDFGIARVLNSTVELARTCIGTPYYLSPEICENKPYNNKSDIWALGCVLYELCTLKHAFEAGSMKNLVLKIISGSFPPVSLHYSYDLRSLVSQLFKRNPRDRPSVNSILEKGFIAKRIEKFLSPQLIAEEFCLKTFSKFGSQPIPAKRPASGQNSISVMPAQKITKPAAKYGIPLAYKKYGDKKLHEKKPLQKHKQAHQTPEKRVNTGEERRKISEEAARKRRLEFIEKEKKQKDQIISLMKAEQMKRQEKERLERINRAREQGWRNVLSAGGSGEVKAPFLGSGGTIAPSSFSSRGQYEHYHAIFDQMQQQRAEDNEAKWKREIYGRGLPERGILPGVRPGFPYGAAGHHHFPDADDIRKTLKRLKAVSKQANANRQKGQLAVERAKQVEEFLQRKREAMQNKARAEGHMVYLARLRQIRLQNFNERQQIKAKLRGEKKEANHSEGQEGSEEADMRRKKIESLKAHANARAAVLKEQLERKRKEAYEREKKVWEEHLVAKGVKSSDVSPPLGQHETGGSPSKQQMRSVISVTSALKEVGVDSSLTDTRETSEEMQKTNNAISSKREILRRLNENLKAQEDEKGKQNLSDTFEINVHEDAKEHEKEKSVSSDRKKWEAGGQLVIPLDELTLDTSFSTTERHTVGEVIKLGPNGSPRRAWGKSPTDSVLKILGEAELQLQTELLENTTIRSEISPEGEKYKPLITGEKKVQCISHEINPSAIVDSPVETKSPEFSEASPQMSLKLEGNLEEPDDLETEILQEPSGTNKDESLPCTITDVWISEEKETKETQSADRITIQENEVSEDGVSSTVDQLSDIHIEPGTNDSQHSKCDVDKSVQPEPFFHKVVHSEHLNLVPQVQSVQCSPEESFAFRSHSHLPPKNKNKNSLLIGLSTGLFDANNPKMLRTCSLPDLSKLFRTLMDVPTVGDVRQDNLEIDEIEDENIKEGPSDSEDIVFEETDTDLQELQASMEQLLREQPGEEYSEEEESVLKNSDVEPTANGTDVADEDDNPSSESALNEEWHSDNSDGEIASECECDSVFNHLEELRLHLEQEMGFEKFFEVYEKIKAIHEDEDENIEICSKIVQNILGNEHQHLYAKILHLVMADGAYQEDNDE
SGK3 (human), sequence (Q96BR1 whole entry, looked up): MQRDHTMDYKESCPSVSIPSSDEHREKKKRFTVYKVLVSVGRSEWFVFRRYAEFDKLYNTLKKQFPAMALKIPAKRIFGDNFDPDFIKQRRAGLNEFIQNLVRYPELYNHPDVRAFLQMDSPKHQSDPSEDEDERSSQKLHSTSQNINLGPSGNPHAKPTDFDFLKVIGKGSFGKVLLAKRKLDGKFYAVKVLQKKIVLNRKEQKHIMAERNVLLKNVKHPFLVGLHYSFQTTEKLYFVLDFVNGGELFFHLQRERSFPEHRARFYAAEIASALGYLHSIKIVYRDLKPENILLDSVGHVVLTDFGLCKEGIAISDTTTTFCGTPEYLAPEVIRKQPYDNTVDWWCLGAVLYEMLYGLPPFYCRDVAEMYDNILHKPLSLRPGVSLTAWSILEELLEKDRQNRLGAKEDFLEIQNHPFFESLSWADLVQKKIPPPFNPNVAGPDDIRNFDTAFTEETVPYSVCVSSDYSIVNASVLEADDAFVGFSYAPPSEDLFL

SMILES: COc1ccc(-c2cnc3c(-c4ccsc4)cnn3c2)cc1
residual activity (DSTYK (human)): 97.6%
residual activity (JAK2 JH1 JH2 (human)): 98.4%
residual activity (FYN (human)): 86.3%
residual activity (RPS6KA6 KD1 KD2 (human)): 90.7%
residual activity (AKT3 (human)): 95.4%
residual activity (CDC42BPA (human)): 86.8%
residual activity (CAMKK2 (human)): 72.9%
residual activity (CAMK1G (human)): 100%
residual activity (INSRR (human)): 98.7%
residual activity (EPHA7 (human)): 91.1%
residual activity (MAPK9 (human)): 104%
residual activity (FGFR1 (human)): 80.3%
residual activity (DDR2 (human)): 98.2%
residual activity (SRC (human)): 91.7%
residual activity (CSK (human)): 95.3%
residual activity (LYN (human)): 81.8% and 92.7%
residual activity (NEK1 (human)): 89.4%
residual activity (CDK3 CCNE1 (human)): 84.9%
residual activity (NEK7 (human)): 109%
residual activity (ALK (human)): 80.4%
residual activity (MAPK1 (human)): 99.2%
residual activity (PAK1 (human)): 97%
residual activity (STK11 (human)): 95.9%
residual activity (CDK5 CDK5R1 p25 (human)): 73%
residual activity (EPHB1 (human)): 83.1%
residual activity (TEC (human)): 124%
residual activity (ITK (human)): 95.2%
residual activity (SGK3 (human)): 99.6%
residual activity (GRK7 (human)): 99.9%
residual activity (MARK2 (human)): 82.1%
residual activity (PASK (human)): 79.5%
residual activity (TTK (human)): 94.2%
residual activity (MKNK2 (human)): 37.5%
residual activity (PRKD3 (human)): 100%
residual activity (PRKCG (human)): 112%
residual activity (TXK (human)): 85.2%
residual activity (PLK3 (human)): 98%
residual activity (FES (human)): 98.2%
residual activity (ADRBK2 (human)): 97.8%
residual activity (RPS6KA3 KD1 KD2 (human)): 83.6%
residual activity (FGFR4 (human)): 89.2%
residual activity (BRSK2 (human)): 94.1%

SMILES: COc1cc2nccc(Oc3ccc(NC(=S)NC(=O)c4ccccc4C)cc3)c2cc1OC
residual activity (DSTYK (human)): 112%
residual activity (JAK2 JH1 JH2 (human)): 97.7%
residual activity (FYN (human)): 77.4%
residual activity (RPS6KA6 KD1 KD2 (human)): 93%
residual activity (AKT3 (human)): 95.9%
residual activity (CDC42BPA (human)): 93.9%
residual activity (CAMKK2 (human)): 75%
residual activity (CAMK1G (human)): 99.5%
residual activity (INSRR (human)): 98.2%
residual activity (EPHA7 (human)): 90.4%
residual activity (MAPK9 (human)): 82.7%
residual activity (FGFR1 (human)): 75.7%
residual activity (DDR2 (human)): 54.1%
residual activity (SRC (human)): 71.7%
residual activity (CSK (human)): 75.3%
residual activity (LYN (human)): 16.9% and 31.8%
residual activity (NEK1 (human)): 96.7%
residual activity (CDK3 CCNE1 (human)): 86.6%
residual activity (NEK7 (human)): 106%
residual activity (ALK (human)): 80.8%
residual activity (MAPK1 (human)): 89.3%
residual activity (PAK1 (human)): 101%
residual activity (STK11 (human)): 106%
residual activity (CDK5 CDK5R1 p25 (human)): 93.2%
residual activity (EPHB1 (human)): 98.5%
residual activity (TEC (human)): 90.8%
residual activity (ITK (human)): 80.6%
residual activity (SGK3 (human)): 98.3%
residual activity (GRK7 (human)): 95.6%
residual activity (MARK2 (human)): 82.3%
residual activity (PASK (human)): 93.6%
residual activity (TTK (human)): 101%
residual activity (MKNK2 (human)): 94.3%
residual activity (PRKD3 (human)): 97.8%
residual activity (PRKCG (human)): 100%
residual activity (TXK (human)): 66.9%
residual activity (PLK3 (human)): 92.1%
residual activity (FES (human)): 96.7%
residual activity (ADRBK2 (human)): 94.9%
residual activity (RPS6KA3 KD1 KD2 (human)): 86.9%
residual activity (FGFR4 (human)): 92.9%
residual activity (BRSK2 (human)): 93%

residual activity (DSTYK (human)): 102%
residual activity (JAK2 JH1 JH2 (human)): 93.8%
residual activity (FYN (human)): 5.05%
residual activity (RPS6KA6 KD1 KD2 (human)): 43.1%
residual activity (AKT3 (human)): 89.4%
residual activity (CDC42BPA (human)): 94%
residual activity (CAMKK2 (human)): 70.1%
residual activity (CAMK1G (human)): 96%
residual activity (INSRR (human)): 81%
residual activity (EPHA7 (human)): 81.4%
residual activity (MAPK9 (human)): 80.3%
residual activity (FGFR1 (human)): 45.1%
residual activity (DDR2 (human)): 69.7%
residual activity (SRC (human)): 7.64%
residual activity (CSK (human)): 65.8%
residual activity (LYN (human)): 14.7% and 5.98%
residual activity (NEK1 (human)): 93.8%
residual activity (CDK3 CCNE1 (human)): 25.2%
residual activity (NEK7 (human)): 103%
residual activity (ALK (human)): 88.5%
residual activity (MAPK1 (human)): 113%
residual activity (PAK1 (human)): 89.8%
residual activity (STK11 (human)): 42.1%
residual activity (CDK5 CDK5R1 p25 (human)): 20.4%
residual activity (EPHB1 (human)): 72.3%
residual activity (TEC (human)): 104%
residual activity (ITK (human)): 46.6%
residual activity (SGK3 (human)): 97.2%
residual activity (GRK7 (human)): 96.7%
residual activity (MARK2 (human)): 61.8%
residual activity (PASK (human)): 97.9%
residual activity (TTK (human)): 69.8%
residual activity (MKNK2 (human)): 75.3%
residual activity (PRKD3 (human)): 87.8%
residual activity (PRKCG (human)): 90.9%
residual activity (TXK (human)): 27.7%
residual activity (PLK3 (human)): 95.3%
residual activity (FES (human)): 96%
residual activity (ADRBK2 (human)): 104%
residual activity (RPS6KA3 KD1 KD2 (human)): 65.7%
residual activity (FGFR4 (human)): 79.6%
residual activity (BRSK2 (human)): 19.4%
SMILES: O=C1Nc2cc(Br)ccc2/C1=C1/Nc2ccccc2/C1=N\O

SMILES: Oc1ccc(-c2nc(-c3ccc(F)cc3)c(-c3ccncc3)[nH]2)cc1
residual activity (DSTYK (human)): 100%
residual activity (JAK2 JH1 JH2 (human)): 96.2%
residual activity (FYN (human)): 87.5%
residual activity (RPS6KA6 KD1 KD2 (human)): 110%
residual activity (AKT3 (human)): 98.4%
residual activity (CDC42BPA (human)): 94%
residual activity (CAMKK2 (human)): 118%
residual activity (CAMK1G (human)): 98.5%
residual activity (INSRR (human)): 98%
residual activity (EPHA7 (human)): 86.1%
residual activity (MAPK9 (human)): 93.4%
residual activity (FGFR1 (human)): 86.8%
residual activity (DDR2 (human)): 86.3%
residual activity (SRC (human)): 85.9%
residual activity (CSK (human)): 93.7%
residual activity (LYN (human)): 94.8% and 98.4%
residual activity (NEK1 (human)): 98.9%
residual activity (CDK3 CCNE1 (human)): 96.7%
residual activity (NEK7 (human)): 103%
residual activity (ALK (human)): 104%
residual activity (MAPK1 (human)): 97.2%
residual activity (PAK1 (human)): 97.3%
residual activity (STK11 (human)): 93.1%
residual activity (CDK5 CDK5R1 p25 (human)): 96%
residual activity (EPHB1 (human)): 96.8%
residual activity (TEC (human)): 106%
residual activity (ITK (human)): 90.9%
residual activity (SGK3 (human)): 98.4%
residual activity (GRK7 (human)): 105%
residual activity (MARK2 (human)): 99%
residual activity (PASK (human)): 79.3%
residual activity (TTK (human)): 103%
residual activity (MKNK2 (human)): 89.4%
residual activity (PRKD3 (human)): 69.8%
residual activity (PRKCG (human)): 87.9%
residual activity (TXK (human)): 78.5%
residual activity (PLK3 (human)): 96.2%
residual activity (FES (human)): 101%
residual activity (ADRBK2 (human)): 99.3%
residual activity (RPS6KA3 KD1 KD2 (human)): 96.1%
residual activity (FGFR4 (human)): 92.9%
residual activity (BRSK2 (human)): 101%
